Assay results: BigSolDB 2.1

O=[N+]([O-])c1cccc2c([N+](=O)[O-])cccc12
solubility (mole fraction)
Settings	in acetone	in acetonitrile	in chloroform	in ethanol	in ethyl acetate	in ethylbenzene	in n-propanol	in toluene
273.15 K	0.000703	0.000236	0.000629	1.99e-05	0.000648	0.000522	2.17e-05	0.000683
275.65 K	0.000762	0.000265	0.000731	2.25e-05	0.000699	0.000578	2.53e-05	0.000761
278.15 K	0.000844	0.000296	0.000881	2.62e-05	0.000754	0.000638	2.96e-05	0.000858
280.65 K	0.000912	0.000333	0.00102	3.1e-05	0.000835	0.000714	3.41e-05	0.000958
283.15 K	0.000991	0.000372	0.00118	3.66e-05	0.000923	0.000785	3.92e-05	0.00106
285.65 K	0.00108	0.000415	0.00135	4.16e-05	0.000998	0.000863	4.45e-05	0.00117
288.15 K	0.00117	0.000468	0.00153	4.81e-05	0.00113	0.000941	5.16e-05	0.00129
290.65 K	0.00126	0.00053	0.0017	5.43e-05	0.00123	0.00104	5.77e-05	0.00141
293.15 K	0.00138	0.000585	0.00192	6.15e-05	0.00136	0.00116	6.54e-05	0.00153
295.65 K	0.00149	0.000659	0.00213	6.94e-05	0.00148	0.00129	7.43e-05	0.0017
298.15 K	0.00164	0.000741	0.00238	7.82e-05	0.00164	0.0014	8.45e-05	0.00186
300.65 K	0.00174	0.000831	0.00269	8.74e-05	0.0018	0.00152	9.67e-05	0.00205
303.15 K	0.0019	0.000914	0.00295	9.75e-05	0.00198	0.00166	0.00011	0.00223
305.65 K	0.00201	0.000997	0.00334	0.000109	0.00218	0.00182	0.000126	0.00242
308.15 K	0.00217	0.00111	0.00369	0.000122	0.00238	0.00201	0.000142	0.00264
310.65 K	0.00229	0.00121	0.00408	0.000139	0.00258	0.00219	0.000163	0.00287
313.15 K	0.00242	0.00133	0.00451	0.000157	0.00284	0.00248	0.000182	0.00309
